Key:
[1] = tested on: MT-2 cells; assay: Compounds' cytotoxicity assay in MT-2 cells (CellTiter-Glo); assay type: cell-based; parameters: unit not given here; conditions: toxicity in MT-2 cells, 3 days
Procedure: 3. Method for Compounds' Cytotoxicity Assay:
The MT-2 cells are diluted to a needed concentration. 90 μl of the MT-2 cells suspension was added into 384-well plates containing 10 μl of the tested compounds. Compounds were dissolved in DMSO and tested as 11 points 3-fold serial dilutions. After addition of cells to compound plates, plates were placed to humidified 5% CO2 37 incubator for 3 days. The Luciferase activity was measured by CellTiter-Glo® Luminescent Cell Viability Assay kit (Promega Corp., WI, USA).
(§1) TC50 is referred to the toxicity in MT-2 cells by the compounds tested at 50% concentration; IC50 is referred to the inhibiting HIV-1IIIB replication in MT-2 cells by the compounds tested at 50% concentration; Therapeutic Index (TI)=TC50/IC50.

[2] = tested on: HIV-1IIIB; assay: HIV-1 full replication assay (HIV-1IIIB-infected MT-2 cells, supernatant read out on TZM-bl cells, β-Gal); assay type: cell-based; conditions: inhibiting HIV-1IIIB replication in MT-2 cells, 3 days; for IC50: Human immunodeficiency virus 1, MT2, 72 h, read-out: IC50 (PM)
Procedure: The antiviral activity of the compounds of the present invention was determined in a HIV-1 full replication assay.
In this assay, MT-2 cells that are infected with HIV-1IIIB were co-cultured with different concentration of the tested compounds for 3 days and then supernatant is transferred into new 384-well plates containing TZM-bl cells (also called JC53-bl). TZM-bl cells that could be infected by various kinds of HIV-1 strains stably express a great amount of HIV-1 receptor, co-receptor CD4 molecular, and co-receptor CXCR4 and CCR5. TZM-bl cells harbor LTR-luciferase and β-gal two report genes. The expression of luciferase and β-gal reporter directed by HIV-1 LTR can be activated by Tat protein generated after HIV infection, and the quantity of expression is proportional to the quantity of HIV-1. Compounds that interfere with virus replication in MT-2 cells, maturation of the virus, or post-entry steps in the HIV lifecycle decrease the luciferase signal or β-gal signal. In this experiment, BVM (Bevirimat, PA-457) is used as a positive control drug.
Method for Inhibiting HIV-1 Replication Assay:
The MT-2 cells are infected at a Multiciplicity (MOI) of 0.01 TCID50, and then the MT-2 cells suspension was diluted to a needed concentration. 90 μl of the MT-2 cells suspension from above was added into 384-well plates containing 10 μl of the tested compounds.
Compounds were dissolved in DMSO and tested as 11 points 3-fold serial dilutions. After addition of cells to compound plates, plates were placed to humidified 5% CO2 37 incubator for 3 days. 10 μl of cells culture supernatant from the incubated plates was transferred into new black 384-well plates.
Adjusted the TZMb1 cells concentration and 40 μl of TZMb1 cells was added into each well in the black 384-well plates. After addition of the TZMb1 cells to the black plates, black plates were placed to humidified 5% CO2 37 incubator for 24 h, then β-Gal activity was measured.
The anti viral activity %=(measured number-lowest mean number)/(highest mean number-lowest mean number)×100. The IC50 values were calculated by Median Equation and the IC curve was generated by Graphpad Prism V 5.03.
as §1

SMILES | TC50 (PM) [1] | IC50 [2] [nM] | IC50 (PM) [2] [nM]
CC(C)C1=C2[C@H]3CC[C@@H]4[C@@]5(C)CC[C@H](OC(=O)CC(C)(C)C(=O)O)C(C)(C)[C@@H]5CC[C@@]4(C)[C@]3(C)CC[C@@]2(c2nnc(-c3cccnc3)o2)CC1=O [Compound 27-9] | 200 | 8.8 | 
CC(C)C1=C2[C@H]3CC[C@@H]4[C@@]5(C)CC[C@H](OC(=O)CC(C)(C)C(=O)O)C(C)(C)[C@@H]5CC[C@@]4(C)[C@]3(C)CC[C@@]2(c2nnc(-c3ccc(C(F)(F)F)cn3)o2)CC1=O [Compound 27-11] | 23 | 25 | 
CC(C)C1=C2[C@H]3CC[C@@H]4[C@@]5(C)CC[C@H](OC(=O)CC(C)(C)C(=O)O)C(C)(C)[C@@H]5CC[C@@]4(C)[C@]3(C)CC[C@@]2(c2nnc(-c3ccncc3)o2)CC1=O [Compound 27-13] | 200 | 17 | 
CC(C)C1=C2[C@H]3CC[C@@H]4[C@@]5(C)CC[C@H](OC(=O)CC(C)(C)C(=O)O)C(C)(C)[C@@H]5CC[C@@]4(C)[C@]3(C)CC[C@@]2(c2nnc(-c3ncc(Cl)cn3)o2)CC1=O [Compound 27-14] | 46 | 4.9 | 
CC(C)C1=C2[C@H]3CC[C@@H]4[C@@]5(C)CC[C@H](OC(=O)CC(C)(C)C(=O)O)C(C)(C)[C@@H]5CC[C@@]4(C)[C@]3(C)CC[C@@]2(Cc2nnc(Cc3ccc(Cl)cc3)o2)CC1=O [Compound 33] | 18 | 1.6 | 
CC(C)C1=C2[C@H]3CC[C@@H]4[C@@]5(C)CC[C@H](OC(=O)CC(C)(C)C(=O)O)C(C)(C)[C@@H]5CC[C@@]4(C)[C@]3(C)CC[C@@]2(c2nnc(Cc3ccc(Cl)cc3)o2)CC1=O [Compound 38] | 100 | 1.6 | 
CC(C)C1=C2[C@H]3CC[C@@H]4[C@@]5(C)CC[C@H](OC(=O)CC(C)(C)C(=O)O)C(C)(C)[C@@H]5CC[C@@]4(C)[C@]3(C)CC[C@@]2(c2ncc(-c3ccc(Cl)cc3)o2)CC1=O [Compound 65] | 17.68 | 58 | 
CC(C)C1=C2[C@H]3CC[C@@H]4[C@@]5(C)CC[C@H](OC(=O)CC(C)(C)C(=O)O)C(C)(C)[C@@H]5CC[C@@]4(C)[C@]3(C)CC[C@@]2(c2cnc(-c3ccc(Cl)cc3)o2)CC1=O [Compound 77] | 200 | 159 | 
CC(C)C1=C2[C@H]3CC[C@@H]4[C@@]5(C)CC[C@H](OC(=O)CC(C)(C)C(=O)O)C(C)(C)[C@@H]5CC[C@@]4(C)[C@]3(C)CC[C@@]2(c2cc(=O)n(Cc3ccccc3)n2C)CC1 [Compound 89-2] | 37 | 58.4 | 
CC(C)C1=C2[C@H]3CC[C@@H]4[C@@]5(C)CC[C@H](OC(=O)CC(C)(C)C(=O)O)C(C)(C)[C@@H]5CC[C@@]4(C)[C@]3(C)CC[C@@]2(c2cc(=O)n(CC(=O)O)n2C)CC1=O [Compound 91-5] | 160 |  | 2110
CC(C)C1=C2[C@H]3CC[C@@H]4[C@@]5(C)CC[C@H](OC(=O)CC(C)(C)C(=O)O)C(C)(C)[C@@H]5CC[C@@]4(C)[C@]3(C)CC[C@@]2(c2cc(=O)n(CC(N)=O)n2C)CC1=O [Compound 91-6] | 48 | 2 | 
CNC(=O)Cn1c(=O)cc([C@@]23CC[C@]4(C)[C@H](CC[C@@H]5[C@@]6(C)CC[C@H](OC(=O)CC(C)(C)C(=O)O)C(C)(C)[C@@H]6CC[C@]54C)C2=C(C(C)C)C(=O)C3)n1C [Compound 91-7] | 68 | 0.7 | 
CC(C)C1=C2[C@H]3CC[C@@H]4[C@@]5(C)CC[C@H](OC(=O)CC(C)(C)C(=O)O)C(C)(C)[C@@H]5CC[C@@]4(C)[C@]3(C)CC[C@@]2(c2cc(=O)n(CC(=O)N(C)C)n2C)CC1=O [Compound 91-8] | 48 | 3.3 | 
CC(C)C1=C2[C@H]3CC[C@@H]4[C@@]5(C)CC[C@H](OC(=O)CC(C)(C)C(=O)O)C(C)(C)[C@@H]5CC[C@@]4(C)[C@]3(C)CC[C@@]2(c2cc(=O)n(Cc3ccc(Cl)cn3)n2C)CC1=O [Compound 91-9] | 26 | ≤ 0.17 | 
CC(C)C1=C2[C@H]3CC[C@@H]4[C@@]5(C)CC[C@H](OC(=O)CC(C)(C)C(=O)O)C(C)(C)[C@@H]5CC[C@@]4(C)[C@]3(C)CC[C@@]2(c2cc(=O)n(-c3ccc(Cl)cc3)n2C)CC1 [Compound 96-1] | 17 | 33 | 
CC(C)C1=C2[C@H]3CC[C@@H]4[C@@]5(C)CC[C@H](OC(=O)CC(C)(C)C(=O)O)C(C)(C)[C@@H]5CC[C@@]4(C)[C@]3(C)CC[C@@]2(c2cc(=O)n(-c3ccc(Cl)cc3)n2C)CC1=O [Compound 98-1] | 24 | 1.6 | 
COc1ccc(-n2c(=O)cc([C@@]34CC[C@]5(C)[C@H](CC[C@@H]6[C@@]7(C)CC[C@H](OC(=O)CC(C)(C)C(=O)O)C(C)(C)[C@@H]7CC[C@]65C)C3=C(C(C)C)C(=O)C4)n2C)cn1 [Compound 98-2] | 44 | 3 | 
CC(C)C1=C2[C@H]3CC[C@@H]4[C@@]5(C)CC[C@H](OC(=O)CC(C)(C)C(=O)O)C(C)(C)[C@@H]5CC[C@@]4(C)[C@]3(C)CC[C@@]2(c2cc(=O)n(-c3ccc(F)cc3)n2C)CC1=O [Compound 98-3] | 42 | 0.46 | 
CC(C)C1=C2[C@H]3CC[C@@H]4[C@@]5(C)CC[C@H](OC(=O)CC(C)(C)C(=O)O)C(C)(C)[C@@H]5CC[C@@]4(C)[C@]3(C)CC[C@@]2(c2cc(=O)n(-c3ccc(C#N)cc3)n2C)CC1=O [Compound 98-4] | 36 | 0.81 | 
CCn1c([C@@]23CC[C@]4(C)[C@H](CC[C@@H]5[C@@]6(C)CC[C@H](OC(=O)CC(C)(C)C(=O)O)C(C)(C)[C@@H]6CC[C@]54C)C2=C(C(C)C)C(=O)C3)cc(=O)n1-c1ccc(Cl)cc1 [Compound 98-5] | 13 | ≤ 0.17 | 
CCn1c([C@@]23CC[C@]4(C)[C@H](CC[C@@H]5[C@@]6(C)CC[C@H](OC(=O)CC(C)(C)C(=O)O)C(C)(C)[C@@H]6CC[C@]54C)C2=C(C(C)C)C(=O)C3)cc(=O)n1-c1ccc(Cl)cn1 [Compound 98-6] | 13 | ≤ 0.17 | 
CC(C)C1=C2[C@H]3CC[C@@H]4[C@@]5(C)CC[C@H](OC(=O)CC(C)(C)C(=O)O)C(C)(C)[C@@H]5CC[C@@]4(C)[C@]3(C)CC[C@@]2(c2cc(=O)n(-c3ccc(Cl)cn3)n2C)CC1=O [Compound 98-7] | 200 | ≤ 0.17 | 
CC(C)C1=C2[C@H]3CC[C@@H]4[C@@]5(C)CC[C@H](OC(=O)CC(C)(C)C(=O)O)C(C)(C)[C@@H]5CC[C@@]4(C)[C@]3(C)CC[C@@]2(c2nnc(-c3ccc(Cl)cc3)s2)CC1=O [Compound 102] | 9.93 | 175 | 
CC(C)C1=C2[C@H]3CC[C@@H]4[C@@]5(C)CC[C@H](OC(=O)CC(C)(C)C(=O)O)C(C)(C)[C@@H]5CC[C@@]4(C)[C@]3(C)CC[C@@]2(Cc2nc(-c3ccc(Cl)cc3)no2)CC1=O [Compound 108-2] | 26 | 160 | 
CC(C)C1=C2[C@H]3CC[C@@H]4[C@@]5(C)CC[C@H](OC(=O)CC(C)(C)C(=O)O)C(C)(C)[C@@H]5CC[C@@]4(C)[C@]3(C)CC[C@@]2(Cc2nnc(-c3ccc(Cl)cc3)n2CCN(C)C)CC1=O [Compound 116-1] | 35 | ≤ 0.17 | 
CNCCn1c(C[C@@]23CC[C@]4(C)[C@H](CC[C@@H]5[C@@]6(C)CC[C@H](OC(=O)CC(C)(C)C(=O)O)C(C)(C)[C@@H]6CC[C@]54C)C2=C(C(C)C)C(=O)C3)nnc1-c1ccc(Cl)cc1 [Compound 116-2] | 27 | 4.8 | 
CC(C)C1=C2[C@H]3CC[C@@H]4[C@@]5(C)CC[C@H](OC(=O)CC(C)(C)C(=O)O)C(C)(C)[C@@H]5CC[C@@]4(C)[C@]3(C)CC[C@@]2(c2nnc(-c3ccc(Cl)cc3)n2CCN(C)C)CC1=O [Compound 116-3] | 33 | 0.55 | 

Source: patent US9428542B2, “Lupane triterpenoid derivatives and pharmaceutical use thereof” (priority 2012, dated 2016)
